In brackets after ≈: the same amount, converted by molar mass.
Tested on: not listed separately
Assay: Inhibition of HSP90 by fluorescence polarization assay
Settings: not given
Compound `COc1c(C)cnc(CN2c3nc(N)nc(Cl)c3NC(=O)[C@H]2C)c1C` has an IC50 of 0.4 µM. Compound `COc1c(C)cnc(CN2CC(=O)N(CCN3CCCC3)c3c(Cl)nc(N)nc32)c1C` has an IC50 of 0.66 µM. `COc1c(C)cnc(CN2CC(=O)N(C(C)C)c3c(Cl)nc(N)nc32)c1C` showed an IC50 of 0.07 µM. With `COc1c(C)cnc(CN2CCNc3c(Cl)nc(N)nc32)c1C` the IC50 was greater than 5 µM. `COc1c(C)cnc(CN2CC(=O)N(CC(C)C)c3c(Cl)nc(N)nc32)c1C` showed an IC50 of 0.05 µM. In the case of `COc1c(C)cnc(CN2CC(=O)Nc3c(Cl)nc(N)nc32)c1C`, the IC50 is reported as 0.88 µM. Work on `COc1c(C)cnc(CN2CC(=O)N(C)c3c(Cl)nc(N)nc32)c1C` yielded an IC50 of 0.96 µM. In the case of `COc1c(C)cnc(CN2c3nc(N)nc(Cl)c3NC(=O)[C@@H]2C(C)C)c1C`, the IC50 is reported as 2.14 µM. For `Cc1cnc(CN2CC(=O)N(CC(C)C)c3c(Cl)nc(N)nc32)c(C)c1Br`, the IC50 was 0.06 µM. `COc1c(C)cnc(CN2c3nc(N)nc(Cl)c3NC(=O)[C@@H]2CCO)c1C` gave an IC50 of 0.64 µM. `COc1c(C)cnc(CN2CC(=O)N(CCCC(C)C)c3c(Cl)nc(N)nc32)c1C` gave an IC50 of 0.9 µM. `COc1c(C)cnc(CN2c3nc(N)nc(Cl)c3N(C(C)C)C(=O)[C@@H]2C(C)C)c1C` gave an IC50 of 0.08 µM.

Target: Heat shock protein HSP90 (Homo sapiens, UniProt P07900+P08238)
Assay: Inhibition of HSP90 in human SKBR3 cells assessed as induction of Her2 degradation
Assay type: cell-based
Settings: sk-br-3
Work on `COc1c(C)cnc(CN2c3nc(N)nc(Cl)c3NC(=O)[C@H]2C)c1C` yielded an IC50 of 0.35 µM. Work on `COc1c(C)cnc(CN2CC(=O)N(CCN3CCCC3)c3c(Cl)nc(N)nc32)c1C` yielded an IC50 of 0.51 µM. Work on `COc1c(C)cnc(CN2CC(=O)N(C3CCCC3)c3c(Cl)nc(N)nc32)c1C` yielded an IC50 of 0.11 µM. With `COc1c(C)cnc(CN2CC(=O)N(C(C)C)c3c(Cl)nc(N)nc32)c1C` the IC50 was 0.05 µM. `COc1nc(N)nc2c1N(CC(C)C)C(=O)CN2Cc1ncc(C)c(OC)c1C` gave an IC50 of 1.07 µM. `COc1c(C)cnc(CN2CCNc3c(Cl)nc(N)nc32)c1C` gave an IC50 greater than 5 µM. Work on `COc1c(C)cnc(CN2CC(=O)N(CC(C)C)c3c(Cl)nc(N)nc32)c1C` yielded an IC50 of 0.04 µM. Compound `COc1c(C)cnc(CN2CC(=O)Nc3c(Cl)nc(N)nc32)c1C` has an IC50 of 0.57 µM. Compound `COc1c(C)cnc(CN2CC(=O)N(C)c3c(Cl)nc(N)nc32)c1C` has an IC50 of 0.93 µM. Work on `COc1c(C)cnc(CN2c3nc(N)nc(Cl)c3NC(=O)[C@@H]2C(C)C)c1C` yielded an IC50 of 0.65 µM. With `Cc1cnc(CN2CC(=O)N(CC(C)C)c3c(Cl)nc(N)nc32)c(C)c1Br` the IC50 was 0.1 µM. With `COc1c(C)cnc(CN2c3nc(N)nc(Cl)c3NC(=O)[C@@H]2CCO)c1C` the IC50 was 0.28 µM. Work on `COc1c(C)cnc(CN2CC(=O)N(CCCC(C)C)c3c(Cl)nc(N)nc32)c1C` yielded an IC50 of 1.91 µM. `COc1c(C)cnc(CN2c3nc(N)nc(Cl)c3N(C(C)C)C(=O)[C@@H]2C(C)C)c1C` gave an IC50 of 0.06 µM.

Tested on: not listed separately
Assay: Aqueous solubility at pH 3
Assay type: physicochemical
Settings: not given
Compound `COc1c(C)cnc(CN2CC(=O)Nc3c(Cl)nc(N)nc32)c1C` has a solubility of 381 µM (≈ 133 µg/mL).

Tested on: not listed separately
Assay: Metabolic stability in human liver microsomes
Assay type: ADME, Microsome
Settings: not given
`COc1c(C)cnc(CN2CC(=O)Nc3c(Cl)nc(N)nc32)c1C` gave a half-life greater than 1 h.

Tested on: not listed separately
Assay: Metabolic stability in rat liver microsomes
Assay type: ADME, Microsome
Settings: not given
With `COc1c(C)cnc(CN2CC(=O)Nc3c(Cl)nc(N)nc32)c1C` the half-life was greater than 1 h.

Tested on: not listed separately
Assay: Metabolic stability in mouse liver microsomes
Assay type: ADME, Microsome
Settings: not given
For `COc1c(C)cnc(CN2CC(=O)Nc3c(Cl)nc(N)nc32)c1C`, the half-life was greater than 1 h.

Tested on: not listed separately
Assay: Oral bioavailability in rat
Assay type: ADME, organism-based
Settings: in vivo
In the case of `COc1c(C)cnc(CN2CC(=O)Nc3c(Cl)nc(N)nc32)c1C`, the bioavailability is reported as 60%.

Tested on: MCF7
Assay: Growth inhibition of human MCF7 cells
Assay type: functional, cell-based
Settings: not given
For `COc1c(C)cnc(CN2c3nc(N)nc(Cl)c3NC(=O)[C@H]2C)c1C`, the IC50 was 0.79 µM. Work on `COc1c(C)cnc(CN2CC(=O)N(CCN3CCCC3)c3c(Cl)nc(N)nc32)c1C` yielded an IC50 of 1.32 µM. Work on `COc1c(C)cnc(CN2CC(=O)N(C3CCCC3)c3c(Cl)nc(N)nc32)c1C` yielded an IC50 of 0.82 µM. `COc1c(C)cnc(CN2CC(=O)N(C(C)C)c3c(Cl)nc(N)nc32)c1C` showed an IC50 of 0.05 µM. For `COc1c(C)cnc(CN2CC(=O)N(CC(C)C)c3c(Cl)nc(N)nc32)c1C`, the IC50 was 0.07 µM. For `COc1c(C)cnc(CN2CC(=O)Nc3c(Cl)nc(N)nc32)c1C`, the IC50 was 1.49 µM. Compound `COc1c(C)cnc(CN2CC(=O)N(C)c3c(Cl)nc(N)nc32)c1C` has an IC50 of 2.19 µM. `COc1c(C)cnc(CN2c3nc(N)nc(Cl)c3NC(=O)[C@@H]2C(C)C)c1C` gave an IC50 of 1.6 µM. Work on `Cc1cnc(CN2CC(=O)N(CC(C)C)c3c(Cl)nc(N)nc32)c(C)c1Br` yielded an IC50 of 0.28 µM. For `COc1c(C)cnc(CN2CC(=O)N(CCCC(C)C)c3c(Cl)nc(N)nc32)c1C`, the IC50 was 3.11 µM. `COc1c(C)cnc(CN2c3nc(N)nc(Cl)c3N(C(C)C)C(=O)[C@@H]2C(C)C)c1C` gave an IC50 of 0.04 µM.

Tested on: HT-29
Assay: Growth inhibition of human HT-29 cells
Assay type: functional, cell-based
Settings: not given
`COc1c(C)cnc(CN2c3nc(N)nc(Cl)c3NC(=O)[C@H]2C)c1C` gave an IC50 of 0.47 µM. In the case of `COc1c(C)cnc(CN2CC(=O)N(CCN3CCCC3)c3c(Cl)nc(N)nc32)c1C`, the IC50 is reported as 1.08 µM. Work on `COc1c(C)cnc(CN2CC(=O)N(C3CCCC3)c3c(Cl)nc(N)nc32)c1C` yielded an IC50 of 0.33 µM. In the case of `COc1c(C)cnc(CN2CC(=O)N(C(C)C)c3c(Cl)nc(N)nc32)c1C`, the IC50 is reported as 0.06 µM. `COc1c(C)cnc(CN2CC(=O)N(CC(C)C)c3c(Cl)nc(N)nc32)c1C` gave an IC50 of 0.04 µM. `COc1c(C)cnc(CN2CC(=O)Nc3c(Cl)nc(N)nc32)c1C` showed an IC50 of 1.18 µM. For `COc1c(C)cnc(CN2CC(=O)N(C)c3c(Cl)nc(N)nc32)c1C`, the IC50 was 1.47 µM. Compound `COc1c(C)cnc(CN2c3nc(N)nc(Cl)c3NC(=O)[C@@H]2C(C)C)c1C` has an IC50 of 1.06 µM. With `Cc1cnc(CN2CC(=O)N(CC(C)C)c3c(Cl)nc(N)nc32)c(C)c1Br` the IC50 was 0.14 µM. `COc1c(C)cnc(CN2CC(=O)N(CCCC(C)C)c3c(Cl)nc(N)nc32)c1C` showed an IC50 of 2.26 µM. In the case of `COc1c(C)cnc(CN2c3nc(N)nc(Cl)c3N(C(C)C)C(=O)[C@@H]2C(C)C)c1C`, the IC50 is reported as 0.09 µM.

Tested on: SK-BR-3
Assay: Growth inhibition of human SKBR3 cells
Assay type: functional, cell-based
Settings: not given
For `COc1c(C)cnc(CN2c3nc(N)nc(Cl)c3NC(=O)[C@H]2C)c1C`, the IC50 was 0.22 µM. Compound `COc1c(C)cnc(CN2CC(=O)N(CCN3CCCC3)c3c(Cl)nc(N)nc32)c1C` has an IC50 of 0.3 µM. `COc1c(C)cnc(CN2CC(=O)N(C3CCCC3)c3c(Cl)nc(N)nc32)c1C` showed an IC50 of 0.12 µM. With `COc1c(C)cnc(CN2CC(=O)N(C(C)C)c3c(Cl)nc(N)nc32)c1C` the IC50 was 0.02 µM. `COc1c(C)cnc(CN2CC(=O)N(CC(C)C)c3c(Cl)nc(N)nc32)c1C` showed an IC50 of 0.01 µM. Compound `COc1c(C)cnc(CN2CC(=O)Nc3c(Cl)nc(N)nc32)c1C` has an IC50 of 0.39 µM. `COc1c(C)cnc(CN2CC(=O)N(C)c3c(Cl)nc(N)nc32)c1C` showed an IC50 of 0.46 µM. Work on `COc1c(C)cnc(CN2c3nc(N)nc(Cl)c3NC(=O)[C@@H]2C(C)C)c1C` yielded an IC50 of 0.43 µM. `Cc1cnc(CN2CC(=O)N(CC(C)C)c3c(Cl)nc(N)nc32)c(C)c1Br` showed an IC50 of 0.06 µM. Compound `COc1c(C)cnc(CN2CC(=O)N(CCCC(C)C)c3c(Cl)nc(N)nc32)c1C` has an IC50 of 0.97 µM. `COc1c(C)cnc(CN2c3nc(N)nc(Cl)c3N(C(C)C)C(=O)[C@@H]2C(C)C)c1C` gave an IC50 of 0.005 µM.

Tested on: BT-474
Assay: Growth inhibition of human BT474 cells
Assay type: functional, cell-based
Settings: not given
With `COc1c(C)cnc(CN2c3nc(N)nc(Cl)c3NC(=O)[C@H]2C)c1C` the IC50 was 0.41 µM. Compound `COc1c(C)cnc(CN2CC(=O)N(CCN3CCCC3)c3c(Cl)nc(N)nc32)c1C` has an IC50 of 0.52 µM. For `COc1c(C)cnc(CN2CC(=O)N(C3CCCC3)c3c(Cl)nc(N)nc32)c1C`, the IC50 was 0.29 µM. Compound `COc1c(C)cnc(CN2CC(=O)N(C(C)C)c3c(Cl)nc(N)nc32)c1C` has an IC50 of 0.03 µM. `COc1c(C)cnc(CN2CC(=O)N(CC(C)C)c3c(Cl)nc(N)nc32)c1C` showed an IC50 of 0.02 µM. In the case of `COc1c(C)cnc(CN2CC(=O)Nc3c(Cl)nc(N)nc32)c1C`, the IC50 is reported as 0.65 µM. Work on `COc1c(C)cnc(CN2CC(=O)N(C)c3c(Cl)nc(N)nc32)c1C` yielded an IC50 of 0.95 µM. With `COc1c(C)cnc(CN2c3nc(N)nc(Cl)c3NC(=O)[C@@H]2C(C)C)c1C` the IC50 was 0.76 µM. `Cc1cnc(CN2CC(=O)N(CC(C)C)c3c(Cl)nc(N)nc32)c(C)c1Br` showed an IC50 of 0.13 µM. For `COc1c(C)cnc(CN2CC(=O)N(CCCC(C)C)c3c(Cl)nc(N)nc32)c1C`, the IC50 was 1.65 µM. With `COc1c(C)cnc(CN2c3nc(N)nc(Cl)c3N(C(C)C)C(=O)[C@@H]2C(C)C)c1C` the IC50 was 0.02 µM.

Tested on: HMEC
Assay: Growth inhibition of HMEC cells
Assay type: cell-based
Settings: Homo sapiens
Compound `COc1c(C)cnc(CN2CC(=O)N(C(C)C)c3c(Cl)nc(N)nc32)c1C` has an IC50 of 0.32 µM. For `COc1c(C)cnc(CN2CC(=O)N(CC(C)C)c3c(Cl)nc(N)nc32)c1C`, the IC50 was 0.13 µM. In the case of `Cc1cnc(CN2CC(=O)N(CC(C)C)c3c(Cl)nc(N)nc32)c(C)c1Br`, the IC50 is reported as 0.18 µM.

Tested on: HMEC
Assay: Selectivity index, ratio of IC50 for HMEC cells to IC50 for human SKBR3 cells
Assay type: functional
Settings: not given
In the case of `COc1c(C)cnc(CN2CC(=O)N(CC(C)C)c3c(Cl)nc(N)nc32)c1C`, the “Ratio IC50” value is reported as 13.

Tested on: HMEC
Assay: Selectivity index, ratio of IC50 for HMEC cells to IC50 for human BT474 cells
Assay type: functional
Settings: not given
For `COc1c(C)cnc(CN2CC(=O)N(CC(C)C)c3c(Cl)nc(N)nc32)c1C`, the “Ratio IC50” value was 6.

Tested on: MCF7
Assay: Selectivity index, ratio of IC50 for HMEC cells to IC50 for human MCF7 cells
Assay type: functional
Settings: not given
With `COc1c(C)cnc(CN2CC(=O)N(CC(C)C)c3c(Cl)nc(N)nc32)c1C` the “Ratio IC50” value was 2.

Tested on: HT-29
Assay: Selectivity index, ratio of IC50 for HMEC cells to IC50 for human HT-29 cells
Assay type: functional
Settings: not given
In the case of `COc1c(C)cnc(CN2CC(=O)N(CC(C)C)c3c(Cl)nc(N)nc32)c1C`, the “Ratio IC50” value is reported as 3.
